Assay [1] can be described thus: growth inhibition of yeast vps1Δ mutant, dose response, S. cerevisiae, background strain comparison (AID 790). The conditions noted are these: S. cerevisiae vps1Δ mutant growth inhibition; measured here: background strain growth inhibition.
Assay [2] deals with S. cerevisiae vps1Δ mutant growth inhibition. The assay is described as above.

Data on 67 compounds can be found in PubChem BioAssay AID790 (SRMLSC, 2007).

The structures appear in SMILES notation. The source made the active and inactive calls. No rule for the calls is given here.

For orientation: IC50 means the concentration that gives 50% inhibition. Consider `CC(C)Oc1ccc(/C(O)=C2/C(=O)C(=O)N(CCN(C)C)C2c2ccco2)cc1` (centres undefined), for which the IC50 in assay [1] was over 10 µM; in assay [2], > 10 µM (inactive).
In the same order, the values of `c1ccc(Nc2cc(-c3ccccc3)nc3ncnn23)cc1` are over 10 µM and 5.22 µM.
The like results for `Clc1ccc(-c2cnc(Oc3ccccc3)nc2)cc1` were, in that order, over 10 µM and > 10 µM (inactive).
The like results for `O=C(O)c1ccc(N2CCCCC2)cc1` were, in that order, over 10 µM and > 10 µM (inactive).
Consider `Cc1cc2ncn(CC(O)COc3cccc(C(=O)O)c3)c2cc1C` (centres undefined), for which the IC50 in assay [1] was over 10 µM; in assay [2], > 10 µM (inactive).
The like results for `Cc1c(Cl)c([N+](=O)[O-])nn1Cc1ccc(C(=O)N/N=C\c2cccc(Br)c2)o1` were, in that order, over 10 µM and under 0.049 µM.
Turning to `COCCCn1c2nc3ccccc3nc2c2c(=O)n(-c3ccccc3OC)cnc21`, the IC50 in assay [1] was over 10 µM; in assay [2], > 10 µM (inactive).
As to `O=C(CCC(=O)OCC(=O)c1ccc(F)cc1)NC1CCCCC1`, the concentration for half-maximal inhibition (IC50) was over 10 µM in assay [1] and > 10 µM (inactive) in assay [2].
In the same order, the values of `COc1ccc(C(=O)Nc2ccc(Cl)cc2C(=O)N2CCCC(C)C2)cc1` (centres undefined) are over 10 µM and > 10 µM (inactive).
As to `N#CC1=C2SCC(O)(c3ccccc3)N2C(=O)CC1c1ccccc1` (centres undefined), the IC50 in assay [1] is over 10 µM; in assay [2] it was > 10 µM (inactive).
Take `O=C(Cc1cccs1)Nc1nc2c(s1)CCCC2`: the IC50 in assay [1] was over 10 µM; in assay [2] it was > 10 µM (inactive).
The like results for `CCc1cc(=O)oc2cc(C)c(CN3CCCC(C)C3)c(O)c12` (centres undefined) were, in that order, over 10 µM and > 10 µM (inactive).
The like results for `CC(C)c1ccc(C2C3CSCC=C3C(C#N)=C(N)C2(C#N)C#N)cc1` (centres undefined) were, in that order, 0.843 µM and 1.77 µM (inactive).
The like results for `C=C(C)C1CC=C(CN2CCC(C(=O)OCC)CC2)CC1` (centres undefined) were, in that order, over 10 µM and > 10 µM (inactive).
Turning to `Cc1cccnc1Nc1nc(-c2ccccn2)cs1`, the IC50 in assay [1] is over 10 µM; in assay [2], 4.17 µM.
For `COc1ccc2oc(=O)c(-c3nnc(NCc4ccco4)s3)cc2c1`, the IC50 in assay [1] is over 10 µM; in assay [2], > 10 µM (inactive).
As to `O=c1c2c3c(sc2ncn1/N=C/c1ccc([N+](=O)[O-])o1)CCCC3`, the figures for the IC50 in assay [1] and in assay [2] were 1.59 µM and 2.19 µM (inactive), respectively.
Take `CCCn1c(SCc2cc(=O)oc3ccc4ccccc4c23)n[nH]c1=O`: the values for the IC50 in assay [1] and in assay [2] were over 10 µM and > 10 µM (inactive), respectively.
The like results for `COC(=O)c1ccc(NC(=O)c2cn(-c3ccccc3)nc2-c2ccncc2)cc1` were, in that order, over 10 µM and > 10 µM (inactive).
On to `COc1ccc2nc(NCCCNC(=O)c3cc(OC)c(OC)c(OC)c3)c(C#N)cc2c1`, for which the results for the IC50 in assay [1] and in assay [2] were over 10 µM and > 10 µM (inactive), respectively.
The like results for `CCC(OC(=O)C(NC(=O)c1ccccc1)c1ccccc1)C(=O)Nc1cc(C)on1` (centres undefined) were, in that order, over 10 µM and > 10 µM (inactive).
The like results for `COc1cccc(C(=O)N2CCN(C3CCC(c4ccccc4)CC3)CC2)c1OC` (centres undefined) were, in that order, 23.9 µM and 23.3 µM.
In the same order, the values of `Cc1c(C)c2cc(Cl)c(O)c(CN3CCN(C)CC3)c2oc1=O` are over 10 µM and > 10 µM (inactive).
As for `CCN1C(=O)c2ccc(C(=O)NCc3ccccc3)cc2C1=O`, the IC50 in assay [1] was over 10 µM; in assay [2], > 10 µM (inactive).
The like results for `COc1ccc(NC(=O)N(C2CCCCC2)C(C)c2cccnc2)c(OC)c1` (centres undefined) were, in that order, 16.7 µM and 16.5 µM.
The like results for `O=[N+]([O-])c1ccc(N2CCN(S(=O)(=O)c3ccc(Cl)cc3)CC2)cc1NCc1cccnc1` were, in that order, over 10 µM and > 10 µM (inactive).
The like results for `O=C(N/N=C/c1ccc(OC(=O)c2ccccc2)cc1)c1ccc(CN2CCOCC2)cc1` were, in that order, over 10 µM and > 10 µM (inactive).
As for `O=C1NC2(Nc3ccccc31)C(=O)Nc1ccccc12` (centres undefined), the IC50 in assay [1] is over 10 µM; in assay [2], > 10 µM (inactive).
In the same order, the values of `CCN(CC)c1nc2cc(OC)ccc2cc1C#N` are over 10 µM and > 10 µM (inactive).
In the same order, the values of `Cc1ccc(SC(=O)COc2ccc(C)c(C)c2)cc1` are over 10 µM and > 10 µM (inactive).
Turning to `O=C(c1ccco1)N1CCN=C1SCc1cccnc1`, the IC50 in assay [1] is over 10 µM; in assay [2], > 10 µM (inactive).
The like results for `COc1cc2[nH]c(=S)n(CCCN3CCOCC3)c(=O)c2cc1OC` were, in that order, over 10 µM and > 10 µM (inactive).
For the compound `Cc1ccc(S(=O)(=O)N2CC3CC(C2)c2cccc(=O)n2C3)cc1` (centres undefined), the IC50 in assay [1] was over 10 µM; in assay [2], > 10 µM (inactive).
`CCOCCCNC(=O)C1CCN(C(=O)N(C)C)CC1`: the IC50 is over 10 µM in assay [1] and > 10 µM (inactive) in assay [2].
As for `CCC(C)(C)NC(=O)CN(C(=O)CCC(=O)Nc1ccccn1)c1ccc(F)c(Cl)c1`, the IC50 was over 10 µM in assay [1] and > 10 µM (inactive) in assay [2].
In the case of `N#CC1=C(N)C(C#N)(C#N)C(c2cccnc2)C2CC(c3ccccc3)CC=C12` (centres undefined), the values for the IC50 in assay [1] and in assay [2] were 2.97 µM and 3.03 µM (inactive), respectively.
The like results for `Cc1ccc(/C=N/n2cnc3sc(-c4ccccc4)cc3c2=O)o1` were, in that order, over 10 µM and > 10 µM (inactive).
In the same order, the values of `C/C(=N\N=C(/N)SC1CC(=O)N(c2ccc(Cl)c(Cl)c2)C1=O)c1cccs1` (centres undefined) are 5.98 µM and 4.46 µM.
As to `COc1cccc(-c2cc(C(=O)N3CCN(C(c4ccccc4)c4ccccc4)CC3)no2)c1`, the IC50 in assay [1] is over 10 µM; in assay [2] it was > 10 µM (inactive).
Turning to `CCCCOc1ccc(-c2ncc(C(=O)O)c(C)n2)cc1`, the IC50 in assay [1] is over 10 µM; in assay [2] it was > 10 µM (inactive).
On to `O=C(Cn1ncc2c3ccccc3n(Cc3ccccc3F)c2c1=O)N1CCC2(CC1)OCCO2`, for which the figures for the IC50 in assay [1] and in assay [2] were over 10 µM and > 10 µM (inactive), respectively.
In the same order, the values of `O=S(=O)(NCC(c1cccnc1)N1CCN(c2ccccc2)CC1)c1cccs1` (centres undefined) are over 10 µM and 20.5 µM.
Turning to `CC1CCCCN1CCNC(=O)Cn1nc(-c2ccccc2)ccc1=O` (centres undefined), the IC50 in assay [1] is over 10 µM; in assay [2], > 10 µM (inactive).
In the case of `Cc1cc(O)c(/C=N/Nc2ccc(Cl)cc2)c(=O)o1`, the IC50 in assay [1] is 4.69 µM; in assay [2], 5.43 µM (inactive).
In the case of `Cc1cc(=O)[nH]c(SCC(=O)c2ccc(C)c(C)c2)n1`, the IC50 in assay [1] is 2.31 µM; in assay [2] it was 0.896 µM.
Regarding `COC(=O)C1=CN(CCCN2CCCC2=O)C=C(C(=O)OC)C1c1ccccc1C(F)(F)F`, the IC50 in assay [1] is over 10 µM; in assay [2], > 10 µM (inactive).
The like results for `O=C(NCC(=O)N(c1cccnc1)C(C(=O)NCc1ccco1)c1ccccc1)c1ccco1` (centres undefined) were, in that order, over 10 µM and > 10 µM (inactive).
`Cc1ccc(N2CCN(S(=O)(=O)N3CCCCCC3)CC2)cc1Cl`: the IC50 is over 10 µM in assay [1] and > 10 µM (inactive) in assay [2].
Take `Cc1ccc(C2N(c3ccc(Cl)c(Cl)c3)C(=O)C3CCCN32)o1` (centres undefined): the IC50 in assay [1] is over 10 µM; in assay [2], > 10 µM (inactive).
In the same order, the values of `CCCC(=O)Nc1ccc(Cl)c(NC(=O)c2cccnc2Cl)c1` are over 10 µM and > 10 µM (inactive).
In the case of `Cn1c(=O)c2nc(NCc3ccccc3)cnc2n(C)c1=O`, the IC50 was over 10 µM in assay [1] and > 10 µM (inactive) in assay [2].
The like results for `CC(=O)NC1C(c2nc3ccccc3s2)=C(c2ccccc2)C(=O)N1c1ccc(C)cc1` (centres undefined) were, in that order, 1.92 µM and 2.18 µM (inactive).
The like results for `Cc1cccc(-c2nnc(-c3cccc(NC(=O)Cc4cccs4)c3)o2)c1` were, in that order, 15.2 µM and > 10 µM (inactive).
In the same order, the values of `COc1ccc(CN(C(=O)Cc2cccs2)C(C(=O)NC2CCCC2)c2ccncc2)cc1` (centres undefined) are over 10 µM and > 10 µM (inactive).
With `Clc1cc(Br)ccc1OCCOCCN1CCOCC1`, the half-inhibitory concentration (IC50) was over 10 µM in assay [1] and > 10 µM (inactive) in assay [2].
In the same order, the values of `CC(C)(C)n1nnnc1CN(Cc1cccnc1)Cc1ccccc1Cl` are over 10 µM and > 10 µM (inactive).
`CCCCCOc1ccc(CN2CCOCC2)cc1Cl`: the IC50 in assay [1] is over 10 µM; in assay [2] it was > 10 µM (inactive).
`Cc1ccc(CSc2nc3ccccc3cc2C=O)cc1`: the figures for the half-maximal inhibitory concentration (IC50) in assay [1] and in assay [2] were 2.1 µM and 1.99 µM, respectively.
With `O=C(NCCSCc1ccc(Cl)cc1Cl)c1ccc(CN2CCOCC2)cc1`, the IC50 was over 10 µM in assay [1] and > 10 µM (inactive) in assay [2].
Consider `NC(=O)c1c(NC(=O)CN2C(=O)CCC2=O)sc2c1CCCCC2`, for which the IC50 in assay [1] was over 10 µM; in assay [2], > 10 µM (inactive).
In the case of `Cc1cccc(-n2c(N)c(C(=O)NCCN3CCOCC3)c3nc4ccccc4nc32)c1`, the IC50 is over 10 µM in assay [1] and > 10 µM (inactive) in assay [2].
The like results for `C=CCc1ccc(OCCCCN2CC(C)OC(C)C2)c(OC)c1` (centres undefined) were, in that order, over 10 µM and > 10 µM (inactive).
`O=C(Nc1nnc(-c2ccc3c(c2)CCCC3)o1)c1ccccc1Cl`: the results for the IC50 in assay [1] and in assay [2] were 10.7 µM and 1.58 µM, respectively.
Take `CCOc1cccc(C(=O)Nc2cccnc2)c1`: the IC50 was over 10 µM in assay [1] and > 10 µM (inactive) in assay [2].
Turning to `CC1=CC(C)(C)Nc2ccc(OC(=O)CN3C(=O)c4cccc5cccc(c45)C3=O)cc21`, the IC50 in assay [1] was over 10 µM; in assay [2], > 10 µM (inactive).
In the same order, the values of `O=C(NCC(c1cccnc1)N1CCN(c2ccccc2)CC1)C1CCCCC1` (centres undefined) are over 10 µM and > 10 µM (inactive).
In the same order, the values of `COc1ccc(Nc2nc(N)nc(CSc3nnc(N)s3)n2)cc1` are over 10 µM and > 10 µM (inactive).
